US10688099B2, “Methods for modulating the amount of RNA transcripts” (PTC Therapeutics, Inc., priority 2013, dated 2020)

Tested on: RNA isoforms in PNN 1-46 SMA type I patient-derived fibroblasts
Experiment: RNA Abundance Modulation (RNA isoform abundance, iFPM, HiSeq RNA sequencing)
Assay type: cell-based, human
Conditions: 3 μM
Procedure: Cells from a cell line of interest are cultured in conditions sufficient to yield the number of cells capable of generating enough RNA for subsequent sequencing steps. Cells from the tested cell line are contacted with a compound described herein.
To culture said cells, they are seeded, at appropriate concentrations in a volume of media in a cell culture container and incubated for 4, 5, 6, 7, 8, 9, 10, or more hours. A concentrated solution of compound in a vehicle (e.g., DMSO) is then added in sufficient volume to result in the intended final concentration of the compound, for example 100 nM, 500 nM, 1 μM, 5 μM, 10 μM, 15 μM, 20 μM, or more. The cells may also be treated with vehicle alone, as a control. A number of replicates of each concentration or control may be made (e.g., 2 replicates). The cells are then incubated at a constant temperature appropriate for cell culture of the particular cell line (e.g., 37° C.) for 6, 12, 18, 24, 48, or more hours. After incubation, the growth medium is removed and the cells are washed with the appropriate buffer (e.g., PBS). Cells are then removed from adherence to the cell culture container by treatment with a solution containing trypsin, and the trypsin subsequently quenched with the appropriate volume of buffer (e.g., DMEM-FBS). The cells are then pelleted with gentle centrifugation (e.g., ≤90×g centrifugal force) and resuspended in a buffer to lyse the cells for extraction of RNA. The cell lysates may then be frozen (e.g., at −80° C.) or, alternately, may immediately be used in a procedure to purify the RNA (e.g. by use of the RNEASY PLUS® minikit). The RNA from cell lysates is eluted in the appropriate volume of buffer (e.g., RNEASE-FREE H2O®). The resulting purified RNA may then be sequenced (e.g., using RNASeq) or analyzed using a human exon array (e.g., by GENECHIP® human exon array) to determine changes in the RNA levels in those cells treated with compound compared to those cells treated only with DMSO. The purified RNA may also be quantified by other methods known in the art.
Using the RNA data obtained from sequencing, exon array, or other methods, a statistical analysis can reveal changes in the RNA levels of compound-treated compared with control. For example, t-test p-values may be calculated for the data obtained through sequencing and exon array methods in order to compare compound-treated cells to those treated with the DMSO control. […] Analysis of the sequencing and exon array data may then also yield predictions about the cause of the aberrant amount of an RNA transcript in the cells (e.g., perturbation of RNA splicing, RNA transcription, or RNA stability). These predictions may be further confirmed by methods known in the art. For example, RT-PCR and RT-qPCR may be used to confirm the change in amount of RNA transcripts for one or more particular transcripts of interest.
Following the methods described above in Example 1, PNN 1-46 SMA type I patient-derived fibroblasts were treated with 300 nM or 3 μM Compounds 774 and 808 in 0.5% DMSO.
700,000 cells were seeded in 10 mL of medium (DMEM plus 10% FBS) in a T-75 flask. Cells were allowed to attach for at least 4 hrs, after which 50 μL of a 200× compound solution (100% DMSO) was added to each well, and the plate was incubated at 37° C. for 24 hrs.
At the end of the incubation period, the supernatant was removed and the cells where washed with PBS. TrypLE (Invitrogen) express solution was added (e.g. 1.5 mL per one T75 flask). The flasks were incubated for 3 to 5 min at 37° C. The trypsin was then quenched, e.g., by adding 10 mL DMEM-FBS.
Next, the cells were pelleted using gentle centrifugation without exceeding 90×g centrifugal force. The supernatant was removed and the cell pellet was re-suspended in 600 μL RLT buffer (the RLT buffer was supplemented with beta-mercaptoethanol according to the RNeasy protocol manual) by pipetting up and down until the pellet was completely dissolved […]

CCc1nc(C)cn2nc(-c3cc(=O)n4cc(C5CCN(C)CC5)cc(C)c4n3)cc12 [Compound 774]
amp FC (x + 1) (U2SURP BC006474): 1.09 | ave Cpd (U2SURP BC006474): 1249 iFPM | FC (x + 1) (U2SURP BC111692): 1.9191 | L2FC (x + 1) (U2SURP BC111692): 0.940 | L2abs (Cpd-DMSO) (U2SURP BC111692): 3.18 | abs (Cpd-DMSO) (U2SURP BC111692): 9 iFPM | amp FC (x + 1) (U2SURP BC111692): 1.92 | ave Cpd (U2SURP BC111692): 18 iFPM | FC (x + 1) (U2SURP NM_001080415): 2.2780 | L2FC (x + 1) (U2SURP NM_001080415): 1.188 | L2abs (Cpd-DMSO) (U2SURP NM_001080415): 7.79 | abs (Cpd-DMSO) (U2SURP NM_001080415): 222 iFPM | amp FC (x + 1) (U2SURP NM_001080415): 2.28 | ave Cpd (U2SURP NM_001080415): 395 iFPM | FC (x + 1) (UBAP2L AJ243668): 0.4506 | L2FC (x + 1) (UBAP2L AJ243668): −1.150 | L2abs (Cpd-DMSO) (UBAP2L AJ243668): 6.40 | abs (Cpd-DMSO) (UBAP2L AJ243668): 84 iFPM | amp FC (x + 1) (UBAP2L AJ243668): 2.22 | ave Cpd (UBAP2L AJ243668): 68 iFPM | FC (x + 1) (UBAP2L AJ243669): 0.2687 | L2FC (x + 1) (UBAP2L AJ243669): −1.896 | L2abs (Cpd-DMSO) (UBAP2L AJ243669): 6.45 | abs (Cpd-DMSO) (UBAP2L AJ243669): 88 iFPM | amp FC (x + 1) (UBAP2L AJ243669): 3.72 | ave Cpd (UBAP2L AJ243669): 31 iFPM | FC (x + 1) (UBAP2L AJ243670): 3.1873 | L2FC (x + 1) (UBAP2L AJ243670): 1.672 | L2abs (Cpd-DMSO) (UBAP2L AJ243670): 1.13 | abs (Cpd-DMSO) (UBAP2L AJ243670): 2 iFPM | amp FC (x + 1) (UBAP2L AJ243670): 3.19 | ave Cpd (UBAP2L AJ243670): 2 iFPM | FC (x + 1) (UBAP2L AK124294): 0.4670 | L2FC (x + 1) (UBAP2L AK124294): −1.099 | L2abs (Cpd-DMSO) (UBAP2L AK124294): 5.20 | abs (Cpd-DMSO) (UBAP2L AK124294): 37 iFPM | amp FC (x + 1) (UBAP2L AK124294): 2.14 | ave Cpd (UBAP2L AK124294): 31 iFPM | FC (x + 1) (UBAP2L AK302662): 0.2827 | L2FC (x + 1) (UBAP2L AK302662): −1.822 | L2abs (Cpd-DMSO) (UBAP2L AK302662): 8.14 | abs (Cpd-DMSO) (UBAP2L AK302662): 283 iFPM | amp FC (x + 1) (UBAP2L AK302662): 3.54 | ave Cpd (UBAP2L AK302662): 110 iFPM | FC (x + 1) (UBAP2L AK302953): 0.5118 | L2FC (x + 1) (UBAP2L AK302953): −0.966 | L2abs (Cpd-DMSO) (UBAP2L AK302953): 8.57 | abs (Cpd-DMSO) (UBAP2L AK302953): 381 iFPM | amp FC (x + 1) (UBAP2L AK302953): 1.95 | ave Cpd (UBAP2L AK302953): 399 iFPM | FC (x + 1) (UBAP2L AK303533): 0.0476 | L2FC (x + 1) (UBAP2L AK303533): −4.392 | L2abs (Cpd-DMSO) (UBAP2L AK303533): 4.32 | abs (Cpd-DMSO) (UBAP2L AK303533): 20 iFPM | amp FC (x + 1) (UBAP2L AK303533): 20.99 | ave Cpd (UBAP2L AK303533): 0 iFPM | FC (x + 1) (UBAP2L NM_014847): 0.3090 | L2FC (x + 1) (UBAP2L NM_014847): −1.695 | L2abs (Cpd-DMSO) (UBAP2L NM_014847): 10.25 | abs (Cpd-DMSO) (UBAP2L NM_014847): 1219 iFPM | amp FC (x + 1) (UBAP2L NM_014847): 3.24 | ave Cpd (UBAP2L NM_014847): 544 iFPM | FC (x + 1) (UBAP2L NM_001127320): 0.4857 | L2FC (x + 1) (UBAP2L NM_001127320): −1.042 | L2abs (Cpd-DMSO) (UBAP2L NM_001127320): 10.01 | abs (Cpd-DMSO) (UBAP2L NM_001127320): 1030 iFPM | amp FC (x + 1) (UBAP2L NM_001127320): 2.06 | ave Cpd (UBAP2L NM_001127320): 972 iFPM | FC (x + 1) (UBE2V1 NM_021988): 0.9186 | L2FC (x + 1) (UBE2V1 NM_021988): −0.122 | L2abs (Cpd-DMSO) (UBE2V1 NM_021988): 2.64 | abs (Cpd-DMSO) (UBE2V1 NM_021988): 6 iFPM | amp FC (x + 1) (UBE2V1 NM_021988): 1.09 | ave Cpd (UBE2V1 NM_021988): 69 iFPM | FC (x + 1) (UBE2V1 NM_022442): 0.2858
